For 20 compounds, IC50 results are on record in patent US20250122174A1 (Shenzhen Yuanli Shenwan Innovative Medicine Co., Ltd., priority 2022, published 2025).

Counter-ions that a name gives are not always drawn.

The target in the experiment is HPK1 (Homo sapiens (Human), UniProt Q92918). In words: HPK1 Inhibition Assay (ADP-Glo kinase assay). Particulars: ATP 10 μM. The class given is biochemical. On the procedure: A stock solution of 10 mM test compound was prepared in DMSO. The compound was prepared by 5-fold and 10-point serial dilutions with HPK1 kinase assay buffer. The HPK1 kinase assay buffer contained 40 mM Tris, pH 7.5; 20 mM MgCl2, 0.1 mg/ml BSA, and 50 μM DTT. 7.5 ng/μl of Active HPK1 (Promega, V4098) and 0.1 μg/ml MBP substrate protein were added to the reaction system. The final concentration of ATP in the HPK1 kinase reaction system was 10 μM. Serial diluted compounds were transferred to the reaction system and incubated at room temperature for 1 hr. 5 μL of ADP-Glo™ Reagent (Promega, V9101) was added and incubated for 40 min to stop the kinase reaction and deplete the unconsumed ATP. […] The luminescence was measured with a plate-reading luminometer.
Sequence of HPK1 (Q92918 1-346 limits assumed): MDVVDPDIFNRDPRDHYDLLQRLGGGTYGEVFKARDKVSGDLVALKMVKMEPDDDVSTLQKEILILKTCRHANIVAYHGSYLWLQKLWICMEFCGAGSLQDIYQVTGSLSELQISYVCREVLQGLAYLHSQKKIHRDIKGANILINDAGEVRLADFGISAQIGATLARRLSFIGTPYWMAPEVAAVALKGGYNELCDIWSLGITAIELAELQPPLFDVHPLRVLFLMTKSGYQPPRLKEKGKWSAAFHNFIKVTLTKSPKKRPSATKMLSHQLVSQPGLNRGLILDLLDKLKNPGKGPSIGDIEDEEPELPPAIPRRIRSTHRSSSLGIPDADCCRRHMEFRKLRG
(In general: ADP-Glo first removes unused ATP, then detects ADP through luciferase.)
As to `COc1cccc(F)c1-c1nccc(C(=O)Nc2ccc3c(nc(C)n3C)c2N2CCC[C@H]2CO)c1F` [Example 9, 3-fluoro-2-(2-fluoro-6-methoxyphenyl)-N-(4-((S)-2-(hydroxymethyl)pyrrolidin-1-yl)-1,2-dimethyl-1H-benzo[d]imidazol-5-yl)isonicotinamide], the IC50 (as a rule, the concentration at which inhibition is half-maximal) fell in the range of 100 to 1000 nM.
On to `COc1cccc(F)c1-c1nccc(C(=O)Nc2ccc3c(nc(C)n3C)c2N2CC[C@H](N)C2)c1F` [Example 10, N-(4-((S)-3-aminopyrrolidin-1-yl)-1,2-dimethyl-1H-benzo[d]imidazol-5-yl)-3-fluoro-2-(2-fluoro-6-methoxyphenyl)isonicotinamide], for which the IC50 was below 100 nM.
The compound `COCCn1c(C)nc2c(N3CC[C@H](N)C3)c(NC(=O)c3ccnc(-c4c(F)cccc4OC)c3F)ccc21` [Example 11, N-(4-((S)-3-aminopyrrolidin-1-yl)-1-(2-methoxyethyl)-2-methyl-1H-benzo[d]imidazol-5-yl)-3-fluoro-2-(2-fluoro-6-methoxyphenyl)isonicotinamide] displayed an IC50 below 100 nM.
The compound `COc1cccc(F)c1-c1nccc(C(=O)Nc2ccc(-c3cnccc3C#N)cc2N2CC[C@H](N)C2)c1F` [Example 12, N-(2-((S)-3-aminopyrrolidin-1-yl)-4-(4-cyanopyridin-3-yl)phenyl)-3-fluoro-2-(2-fluoro-6-methoxyphenyl)isonicotinamide] displayed an IC50 below 100 nM.
Consider `COc1cccc(F)c1-c1nccc(C(=O)Nc2ccc(-c3cnccc3C#N)cc2N2C[C@@H](N)C[C@H]2CO)c1F` [Example 13, N-(2-((2S,4S)-4-amino-2-(hydroxymethyl)pyrrolidin-1-yl)-4-(4-cyanopyridin-3-yl)phenyl)-3-fluoro-2-(2-fluoro-6-methoxyphenyl)isonicotinamide], for which the IC50 was below 100 nM.
With `COc1cccc(F)c1-c1nccc(C(=O)Nc2ccc3c(nc(-c4ccncc4F)n3C)c2N2CC[C@H](N)C2)c1F` [Example 14, N-{4-[(3S)-3-aminopyrrolidin-1-yl]-2-(3-fluoropyridin-4-yl)-1-methyl-1,3-benzodiazol-5-yl}-3-fluoro-2-(2-fluoro-6-methoxyphenyl)pyridine-4-carboxamide] the figure was below 100 nM.
With `COCc1nc2c(N3CC[C@H](N)C3)c(NC(=O)c3ccnc(-c4c(F)cccc4OC)c3F)ccc2n1C` [Example 15, N-{4-[(3S)-3-aminopyrrolidin-1-yl]-2-(methoxymethyl)-1-methyl-1,3-benzodiazol-5-yl}-3-fluoro-2-(2-fluoro-6-methoxyphenyl) pyridine-4-carboxamide] the figure was below 100 nM; with `Cn1c(C(F)(F)F)nc2c(N3CC[C@H](N)C3)c(NC(=O)c3ccnn(-c4c(F)cccc4F)c3=O)ccc21` [Example 39, (S)—N-(4-(3-aminopyrrolidin-1-yl)-1-methyl-2-(trifluoromethyl)-1H-benzo[d]imidazol-5-yl)-2-(2,6-difluorophenyl)-3-oxo-2,3-dihydropyridazine-4-carboxamide], 100 to 1000 nM; with `Cn1c(C(F)(F)F)nc2c(N3CCC[C@H]3CN)c(NC(=O)c3ccnn(-c4c(F)cccc4F)c3=O)ccc21` [Example 40, (S)-N-(4-(2-(aminomethyl)pyrrolidin-1-yl)-1-methyl-2-(trifluoromethyl)-1H-benzo[d]imidazol-5-yl)-2-(2,6-difluorophenyl)-3-oxo-2,3-dihydropyridazine-4-carboxamide], below 100 nM.
For the compound `COc1cccc(F)c1-n1nccc(C(=O)Nc2ccc3c(nc(C(F)(F)F)n3C)c2N2CC[C@H](N)C2)c1=O` [Example 41, (S)-N-(4-(3-aminopyrrolidin-1-yl)-1-methyl-2-(trifluoromethyl)-1H-benzo[d]imidazol-5-yl)-2-(2-fluoro-6-methoxyphenyl)-3-oxo-2,3-dihydropyridazine-4-carboxamide], the IC50 is below 100 nM.
The same measure for `Cn1c(-c2ccncc2F)nc2c(N3CC[C@H](N)C3)c(NC(=O)c3ccnn(-c4c(F)cccc4F)c3=O)ccc21` [Example 42, N-{4-[(35)-3-aminopyrrolidin-1-yl]-2-(3-fluoropyridin-4-yl)-1-methyl-1,3-benzodiazol-5-yl}-2-(2,6-difluorophenyl)-3-oxopyridazine-4-carboxamide]: below 100 nM; for `COCc1nc2c(N3CC[C@H](N)C3)c(NC(=O)c3ccnn(-c4c(F)cccc4F)c3=O)ccc2n1C` [Example 44, (S)—N-(4-(3-aminopyrrolidin-1-yl)-2-(methoxymethyl)-1-methyl-1H-benzo[d]imidazol-5-yl)-2-(2,6-difluorophenyl)-3-oxo-2,3-dihydropyridazine-4-carboxamide]: below 100 nM; for `COCCn1c(C)nc2c(N3CCC[C@H]3CN)c(NC(=O)c3ccnn(-c4c(F)cccc4F)c3=O)ccc21` [Example 45]: below 100 nM.
With `CC(C)c1nc2c(N3CC[C@H](N)C3)c(NC(=O)c3ccnn(-c4c(F)cccc4F)c3=O)ccc2n1C` [Example 46, (S)—N-(4-(3-aminopyrrolidin-1-yl)-2-isopropyl-1-methyl-1H-benzo[d]imidazol-5-yl)-2-(2,6-difluorophenyl)-3-oxo-2,3-dihydropyridazine-4-carboxamide] the figure was below 100 nM; with `Cc1nc2c(N3CC[C@H](N)C3)c(NC(=O)c3ccnn(-c4c(F)cccc4F)c3=O)ccc2n1C1CCOCC1` [Example 47, (S)—N-(4-(3-aminopyrrolidin-1-yl)-2-methyl-1-(tetrahydro-2H-pyran-4-yl)-1H-benzo[d]imidazol-5-yl)-2-(2,6-difluorophenyl)-3-oxo-2,3-dihydropyridazine-4-carboxamide trifluoroacetate], 100 to 1000 nM; with `Cc1nc2c(N3CC[C@H](N)C3)c(NC(=O)c3ccnn(-c4c(F)cccc4F)c3=O)ccc2n1C1CC1` [Example 48, N-{4-[(35)-3-aminopyrrolidin-1-yl]-1-cyclopropyl-2-methyl-1,3-benzodiazol-5-yl}-2-(2,6-difluorophenyl)-3-oxopyridazine-4-carboxamide], 100 to 1000 nM.
Take `Cc1nc2c(N3CC[C@H](N)C3)c(NC(=O)c3ccnn(-c4c(Cl)cccc4Cl)c3=O)ccc2n1C` [Example 49, N-{4-[(35)-3-aminopyrrolidin-1-yl]-1,2-dimethyl-1,3-benzodiazol-5-yl}-2-(2,6-dichlorophenyl)-3-oxopyridazine-4-carboxamide hydrochloride]: the IC50 is below 100 nM.
Take `COc1ccc(F)cc1-n1nccc(C(=O)Nc2ccc3c(nc(C)n3C)c2N2CC[C@H](N)C2)c1=O` [Example 50, (S)—N-(4-(3-aminopyrrolidin-1-yl)-1,2-dimethyl-1H-benzo[d]imidazol-5-yl)-2-(5-fluoro-2-methoxyphenyl)-3-oxo-2,3-dihydropyridazine-4-carboxamide]: the IC50 was below 100 nM.
`COc1cccc(F)c1-n1cccc(C(=O)Nc2cc(F)ccc2N2C[C@H]3C[C@@H]2CN3)c1=O` [Example 51, N-(2-((1R,4R)-2,5-diazabicyclo[2.2.1]heptan-2-yl)-5-fluorophenyl)-1-(2-fluoro-6-methoxyphenyl)-2-oxo-1,2-dihydropyridine-3-carboxamide] yielded an IC50 below 100 nM.
The compound `COc1cccc(F)c1-n1cccc(C(=O)Nc2cc(F)c3nn(C)cc3c2N2C[C@H]3C[C@@H]2CN3)c1=O` [Example 52, N-(4-((1R,4R)-2,5-diazabicyclo[2.2.1]heptan-2-yl)-7-fluoro-2-methyl-2H-indazol-5-yl)-1-(2-fluoro-6-methoxyphenyl)-2-oxo-1,2-dihydropyridine-3-carboxamide] displayed an IC50 of 100 to 1000 nM.
